# US7897625B2, “Carbamoylbenzotriazole derivatives as inhibitors of lipases and phospholipases” (Sanofi-Aventis, priority 2005, dated 2011)
# Target: T1, Endothelial lipase (Homo sapiens, UniProt Q9Y5X9)
# T1 construct: made in house; host or cells: CHO, HEK293 (recombinant cell lines; concentrated conditioned medium used as enzyme solution)
# T1 sequence (Q9Y5X9 21-500): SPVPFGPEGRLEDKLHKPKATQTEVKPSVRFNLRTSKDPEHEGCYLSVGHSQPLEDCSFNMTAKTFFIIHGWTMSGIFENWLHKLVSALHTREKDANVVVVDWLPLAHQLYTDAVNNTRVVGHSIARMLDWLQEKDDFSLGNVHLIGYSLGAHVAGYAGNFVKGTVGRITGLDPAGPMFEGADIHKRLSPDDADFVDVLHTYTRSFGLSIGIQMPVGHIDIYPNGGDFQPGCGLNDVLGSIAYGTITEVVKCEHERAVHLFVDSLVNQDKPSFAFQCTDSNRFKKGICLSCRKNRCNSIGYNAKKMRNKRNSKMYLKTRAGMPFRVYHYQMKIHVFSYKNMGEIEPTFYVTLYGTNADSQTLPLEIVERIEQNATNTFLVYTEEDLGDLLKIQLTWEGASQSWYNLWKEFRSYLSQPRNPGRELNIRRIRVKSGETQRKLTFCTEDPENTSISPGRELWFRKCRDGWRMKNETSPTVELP
# Experiment: EL inhibition assay
# Assay type: biochemical
# Settings: values marked * are IC50 values of a mixture of the indicated regioisomers; 37° C., 60 minutes, Bodipy phospholipid substrate
# Method: The activity of the compounds of the invention of the formula I was tested in the following enzyme assay system: […]
# Endothelial lipase is released as secretory protein in high concentration into cell culture medium (conditioned medium) by recombinant cell lines (CHO, HEK293). This is employed as enzyme solution after concentration.
# The phospholipase-specific substrate 1,2-bis(4,4-difluoro-5,7-dimethyl-4-bora-3a,4a-diaza-s-indacene-3-undecanoyl)-sn-glycero-3-phosphocholine, (manufacturer Molecular Probes) is used to characterize the enzymatic activity of endothelial lipase and the effect of inhibitors. Hydrolysis of the A1 ester linkage of this phospholipid by the enzyme liberates the fluorescent dye Bodipy which can be detected after separation by thin-layer chromatography on an HPTLC plate (silica gel 60, Merck) or directly in the reaction vessel by measuring the fluorescence.
# The substrate solution is prepared by taking up 100 μg of 1,2-bis(4,4-difluoro-5,7-dimethyl-4-bora-3a,4a-diaza-s-indacene-3-undecanoyl)-sn-glycero-3-phospho-choline (manufacturer Molecular Probes), 2.4 mg of tripalmitin (Sigma) and 7.9 mg of DOP—choline (1,2-dioleoyl-sn-glycero-3-phosphocholine) in 393 μl of chloroform and then transferring 157 μl into a fresh reaction vessel. After evaporation of the solvent, the lipid mixture is dissolved in 4 ml of 200 mM TRIS-HCl, 150 mM sodium chloride, pH=7.4, by sonication twice. The subsequent enzymic reaction takes place at 37° C. for 60 minutes. For this purpose, 45 μl of the substrate solution are incubated with 1 μl of inhibitor of appropriate concentration (dissolved in DMSO, pure DMSO solution is used as control) and 5 μl of enzyme solution (conditioned medium). Then 3 μl of the assay mixture are loaded onto an HPTLC plate (silica gel 60, Merck), and the liberated fluorescent dye is separated for detection with an eluent (diethyl ether:petroleum benzene:acetic acid [78:22:1]). After evaporation of the eluent, the plate is read in a fluorescence scanner. An increased release of the fluorescent dye in the uninhibited reaction is to be observed as a measure of the enzymic activity.
# The enzymatic activity is reduced as a function of the inhibitor concentration used, and the inhibitor concentration at which a half-maximum enzymic activity is observed is called IC50.
row,Compound,IC50 [nM]
1,Cc1cccc(CNC(=O)n2nnc3ccccc32)c1 [Example 1],20
2,Cc1ccsc1CNC(=O)n1nnc2ccccc21 [Example 9],80
3,N#Cc1ccc2sc(CNC(=O)n3nnc4ccccc43)cc2c1 [Example 10],510
4,O=C(NCc1ccc(-c2cccs2)s1)n1nnc2ccccc21 [Example 15],520
5,C[C@@H](NC(=O)n1nnc2ccccc21)c1ccccc1 [Example 23],31

# Results, then the compound that gave them:
row,IC50 [nM],Compound
1,440,O=C(NCc1ccc(Cl)cc1)n1nnc2ccccc21 [Example 28]
2,710,C[C@H](NC(=O)n1nnc2ccccc21)c1ccccc1 [Example 36]
